We go through 1 compound from patent publication US20100197628A1, “METHODS OF TREATING PSYCHIATRIC, SUBSTANCE ABUSE, AND OTHER DISORDERS USING COMBINATIONS CONTAINING OMEGA-3 FATTY ACIDS” (priority 2003, published 2010).

A short description of series [1]: Weights of the rats at the time of the re-test. The format is in vivo, rat. The settings on record: FST studies. As for the experimental part: Rats: A total of 197 male Sprague-Dawley rats (Charles River Laboratories, Boston Mass.) were used in these studies. The rats were housed in groups of four and weighed 325-375 gm at the time of behavioral testing. Rats were maintained on a 12 h light (0700-1900 h)-12 h dark cycle with free access to food and water except during testing. Experiments were conducted in accordance with the 1996 Guide for the Care and Use of Laboratory Animals (NIH) and McLean Hospital policies.

The test system of another series is male Sprague-Dawley rats. The series can be described thus: Forced swim test (FST): latency to become immobile and behavioral sampling. The format is in vivo, rat. The note with it: re-test. How it is done:
The behavioral effects of the combination of uridine and omega-3 fatty acids were also evaluated in rats using the forced swim test (FST). This assay identifies in rodents treatments that have antidepressant effects in humans (Porsolt et al. Nature 266:730-732 1977; Carlezon et al. Biol. Psychiatry 51:882-889, 2002). Uridine was administered using systemic injection while omega-3 fatty acids were administered by supplementation within the diet for various periods of time (3, 10, or 30 days). The effects of uridine in rats maintained on the omega-3 fatty acid-enriched diet were also evaluated to determine if these effects were additive. […] The efficacy of each treatment in the FST was evaluated using two separate scoring methods: latency to become immobile, a simple and rapid method that identifies agents with antidepressant effects ([…] et al. J Neurosci 21:7397-7403 2001), and behavioral sampling, a more complex method that differentiates antidepressant drugs according to their pharmacological mechanisms (Detke et al. Psychopharmacology 121:66-72 1995). Finally, treatments with antidepressant-like effects in the FST were evaluated for non-specific effects on activity in an open field, which might complicate interpretation of the data from the swimming studies. Rats: A total of 197 male Sprague-Dawley rats (Charles River Laboratories, Boston Mass.) were used in these studies. The rats were housed in groups of four and weighed 325-375 gm at the time of behavioral testing. Rats were maintained on a 12 h light (0700-1900 h)-12 h dark cycle with free access to food and water except during testing. Experiments were conducted in accordance with the 1996 Guide for the Care and Use of Laboratory Animals (NIH) and McLean Hospital policies. Drugs: Dosages of desipramine HCl (DMI), fluoxetine HCl (FLX), citalopram HBr (CIT), and uridine (URI) were administered in a distilled water vehicle (VEH) at a volume of 1 cc/kg. All drugs were purchased from RBI-Sigma (St. Louis, Mo.) except CIT, which was a gift of Forest Laboratories (New York, N.Y.). […] The diets were equivalent in overall fat, protein, carbohydrate, and caloric content. Forced Swim Test (FST): One hundred-sixty seven rats were used in the FST studies, which were conducted as described previously (Carlezon et al. Biol. Psychiatry 51:882-889, 2002) with minor modifications. The FST is a two-day procedure in which rats swim under conditions in which escape is not possible. On the first day, rats are placed in clear, 65 cm tall-25 cm diameter cylinders filled to 48 cm with 25° C. water. The rats initially struggle to escape from the water, but eventually they adopt a posture of immobility in which they make only the movements necessary to keep their heads above water. After 15 min of forced swimming, the rats are removed from the water, dried with towels, and placed in a warmed enclosure for 30 min. The cylinders are emptied and cleaned between rats. When the rats are re-tested 24 hours later under identical conditions in 5 min sessions, immobility is increased. Treatment with standard antidepressant drugs within the 24 hr period between the first exposure to forced swimming and re-testing can attenuate facilitated immobility, an effect correlated with antidepressant efficacy in humans (Porsolt et al. Nature 266:730-732 1977; Detke et al. Psychopharmacology 121:66-72 1995, Carlezon et al. Biol. Psychiatry 51:882-889, 2002). Rats tested with DMI, FLX, CIT, or URI received 3 separate intraperitoneal (IP) injections of drug (or VEH), at 1 hr, 19 hr, and 23 hr after the first exposure to forced swimming. This commonly used regimen is sensitive to the antidepressant-like effects of many standard agents (Porsolt et al. Nature 266:730-732 1977; Detke et al. Psychopharmacology 121:66-72 1995; Carlezon et al. Biol. Psychiatry 51:882-889, 2002). […] There were 7-12 rats per treatment condition, and separate rats were used for each treatment regimen. […]

Structures are written as SMILES. Entries after “also recorded” stand apart in the source; their conditions may differ.

`O=c1ccn([C@@H]2O[C@H](CO)[C@@H](O)[C@H]2O)c(=O)[nH]1` [URI, uridine]: the “weights of the rats” value in series [1] was “did not affect”. Further, the “latency to become immobile” value with male Sprague-Dawley rats (URI 71.7 mg/kg IP) was “not”. The “latency to become immobile” value in the series with male Sprague-Dawley rats (URI 130 mg/kg IP) is “not”. In addition, in the series with male Sprague-Dawley rats (URI 239 mg/kg IP), the immobility entry is on record as “reduced immobility”, the “latency to become immobile” value is on record as “increased latencies” and the swimming behaviors result is listed as “increased swimming behaviors”. In the series on male Sprague-Dawley rats (URI alone 71.7, 130, 239 mg/kg IP), the “latency to become immobile, effect over doses” value is reported as “dose-dependent effects; also recorded: dose-dependently increased latencies to become immobile”. In the series on male Sprague-Dawley rats (URI alone 71.7-239 mg/kg IP), the occurrences of climbing entry is “without affecting climbing”; the “occurrences of immobility, effect over doses” value was “significantly affected; also recorded: dose-dependently decreased immobility”; the “occurrences of swimming, effect over doses” value was “significantly affected; also recorded: increased swimming”.
